Assay results from paper PMC8571282 (Nature Communications, 2021).
Where “and” joins values, the source holds several entries; their conditions need not be identical. Equal values may be shown once.

Columns and labels:
[1] = dogs, reported; cited from earlier work
[2] = in vivo; conditions: iv, 20 mg/kg
[3] = Cytotoxicity assay (PrestoBlue), BHK-21; conditions: hamster, BHK-21 cells
[4] = Toxicity-testing across the cell panel (range); conditions: human, African green monkey, hamster
[5] = Single-dose plasma pharmacokinetics in ferrets; conditions: ferret, GS-441524 IV 20 mg/kg, 20 mg/kg

N#C[C@@]1(c2ccc3c(N)ncnn23)O[C@H](CO)[C@@H](O)[C@H]1O [GS-441524]
oral availability [1]: 89%
AUC(0-t) [2]: 81.1 µM·h
Cmax [2]: 54.2 µM
clearance [2]: 14.3 mL/min/kg
half-life [2]: 3.4 h
CC50 at 72 h [3]: > 100 µM
viability at 72 h, 0.046 µM ([3]; % cell viability, BHK-21, 0.046 µM, 72 h): 64%
viability at 72 h, 1.235 µM ([3]; % cell viability, BHK-21, 1.235 µM, 72 h): 87%
CC50 at 72 h [4]: > 100 µM
plasma concentration of GS-441524 ([5]; 0.25 h): 40.5 and 46.6 and 24.1
plasma concentration of GS-441524 ([5]; 0.48 h): 62.4 and 57.2 and 43
plasma concentration of GS-441524 ([5]; 0.58 h): 51.5 and 48.2 and 37.8
plasma concentration of GS-441524 ([5]; 4 h): 8.65 and 7.17
plasma concentration of GS-441524 ([5]; 8 h): 2.1 and 1.85 and 1.83
plasma concentration of GS-441524 ([5]; 12 h): 0.669 and 0.467 and 0.448
